Test results: article PMC9293909 (Nature Communications, 2022)
Values joined by “and” are separate entries in the source; they are usually repeats but may differ in a detail not shown here. Equal values may be shown once. Read-outs that look alike come from different tables or passages of the source.

Tests used:
[1] = tested on: heart rate and mean arterial blood pressure; assay: Urethane-anaesthetised rat, heart rate and arterial blood pressure; settings: for HR / HR, Average / MAP, Average: Fig6e
Description: Anaesthesia was induced in adult male Sprague–Dawley rats (230-330 g) with isofluorane (2–4%; Piramal Healthcare). The femoral vein was catheterised for drug delivery. Anaesthesia was maintained with urethane (1.2–1.7 g kg^−1; Sigma) in sterile saline delivered via the femoral vein catheter. […] The trachea was cannulated and the femoral artery catheterised, and both were connected to pressure transducers (Digitimer) to record respiratory airflow and arterial blood pressure, respectively. Blood pressure and airflow signals were amplified using the NeuroLog system (Digitimer) connected to a micro1401 interface and acquired on a computer using Spike2 software (v7.08a; Cambridge Electronic Design). […] Airflow measurements were used to calculate: tidal volume (VT; mL; pressure sensors were calibrated with a 3 mL syringe), and respiratory frequency (f; breaths min^−1; BrPM). Minute ventilation (VE; mL min^−1) was calculated as f × VT.
Cardiovascular and respiratory parameters were allowed to stabilise before experiments began. A1R agonists were administered by intravenous (IV) injection and the changes in HR, MAP, f, VT, and VE were measured. […] All injections were administered IV as a 350 µl·kg^-1 bolus.

respiration (f, VT, VE) = assay: Urethane-anaesthetised rat, respiration; settings: Fig6e
Experimental: The femoral vein was catheterised for drug delivery.
Adult male Sprague–Dawley rats (400-500 g) were anaesthetised with urethane and instrumented as described above, with the exception that the arterial cannulation was not performed.
Changes in f, VT, and VE were measured. If the dosing occurred close to a respiratory event such as a sigh a second IV dose was administered, with 20 min recovery periods either side of the injection.

[2] = tested on: neuropathic pain (paw withdrawal threshold); assay: Spinal nerve ligation (Chung model), mechanical allodynia, von Frey; type: in vivo, rat
Experimental: Adult male Sprague–Dawley rats, 7-8 weeks old, weighing around 250 g at the time of Chung model surgery, were purchased from Charles River UK Ltd. The animals were housed in groups of 4 in an air-conditioned room on a 12-hour light/dark cycle. Food and water were available ad libitum. They were allowed to acclimatise to the experimental environment for three days by leaving them on a raised metal mesh for at least 40 min. The baseline paw withdrawal threshold (PWT) was examined using a series of graduated von Frey hairs (see below) for 3 consecutive days before surgery and re-assessed on the 6th to 8th day after surgery and on the 13th to 17th day after surgery before drug dosing.
Prior to surgery each rat was anaesthetised with 3% isoflurane mixed with oxygen (2 L min^−1) followed by an intramuscular injection of ketamine (60 mg kg^−1) plus xylazine (10 mg kg^−1). The back was shaved and sterilised with povidone-iodine. The animal was placed in a prone position and a para-medial incision was made on the skin covering the L4-6 level. The L5 spinal nerve was carefully isolated and tightly ligated with 6/0 silk suture. The wound was then closed in layers after a complete haemostasis. A single-dose of antibiotics (Amoxipen, 15 mg/rat, intraperitoneally, IP) was routinely given for prevention of infection after surgery. The animals were placed in a temperature-controlled recovery chamber until fully awake before being returned to their home cages. The vehicle (normal saline or DMSO) was administered via the IV route at 1 ml·kg^−1 and via the intrathecal (IT) route at 10 µl for each injection. […] To test for mechanical allodynia the animals were placed in individual Perspex boxes on a raised metal mesh for at least 40 min before the test. Starting from the filament of lower force, each filament was applied perpendicularly to the centre of the ventral surface of the paw until slightly bent for 6 seconds. If the animal withdrew or lifted the paw upon stimulation, then a hair with force immediately lower than that tested was used. If no response was observed, then a hair with force immediately higher was tested. […] The animals were returned to their home cages to rest (about 30 min) between two neighbouring testing time points. At the end of each experiment, the animals were deeply anaesthetised with isoflurane and killed by decapitation.

[3] = Half-life determination in PBS; type: physicochemical; settings: for 1st / % Compound Remaining / 2nd / % Compound Remaining / Mean / % Compound Remaining: PBS, pH 7.4; for half-life: buffer, pH 7.4, PBS
Experimental: […] Samples were analysed by HPLC-MS/MS and corresponding peak areas were recorded for each analyte. The ratio of precursor compound remaining after each time-point relative to the amount present at time 0, expressed as a percentage, is reported as chemical stability.

motor coordination = tested on: motor coordination
Experimental: On the day of the experiment, three baseline trials were recorded. The compound was administered IP (10 µg kg^−1, n = 6) or IV via tail vein injection (10 and 25 µg kg^−1, n = 6 per group). The control group received subcutaneous saline and the positive control group received subcutaneous morphine (15 mg kg^−1). Latency to fall (seconds) was measured in triplicate at 1, 2, 3 and 5 h post drug administration.

[4] = incubation 0 minutes, UoBern01 at 1.00E-06 M
[5] = incubation 60 minutes, UoBern01 at 1.00E-06 M
[6] = incubation 120 minutes, UoBern01 at 1.00E-06 M
[7] = antagonist group, 1h after dosing
[8] = antagonist group, 2h after dosing
[9] = antagonist group, 4h after dosing

OC[C@H]1O[C@@H](n2cnc3c(N[C@@H]4CCC[C@H]4OCc4ccccc4)ncnc32)[C@H](O)[C@@H]1O [B]
HR ([1]; dose group B 8, individual rat): 406 and 368 and 425 and 416 and 331 and 340 and 420 and 470
HR, Average ([1]; dose group B 8, n 8): 397.0
MAP, Average ([1]; dose group B 8, n 8): 111.3
HR ([1]; dose group B 17, individual rat): 369 and 385 and 301 and 313
HR, Average ([1]; dose group B 17, n 4): 342.0
MAP, Average ([1]; dose group B 17, n 4): 115.8
HR ([1]; dose group B 25, individual rat): 362 and 382 and 312 and 305
HR, Average ([1]; dose group B 25, n 4): 340.3
MAP, Average ([1]; dose group B 25, n 4): 113.5
Freq, Average (respiration (f, VT, VE); dose group B 8, n 12): 166.9
Freq, Average (respiration (f, VT, VE); dose group B 17, n 4): 189.3
Freq, Average (respiration (f, VT, VE); dose group B 25, n 4): 209.0

OC[C@H]1O[C@@H](n2cnc3c(NC4CCCC4OCc4ccccc4)ncnc32)[C@H](O)[C@@H]1O (some centres unmarked) [BnOCPAA]
paw withdrawal threshold, individual animals (Fig7d) ([2]; 6ug, 1h after dosing): 8
paw withdrawal threshold, Average (Fig7d) ([2]; 6ug, 1h after dosing, n 11): 9.8
paw withdrawal threshold, individual animals (Fig7d) ([2]; 6ug, 2h after dosing): 8
paw withdrawal threshold, Average (Fig7d) ([2]; 6ug, 2h after dosing, n 11): 12.6
paw withdrawal threshold, individual animals (Fig7d) ([2]; 6ug, 4h after dosing): 8
paw withdrawal threshold, Average (Fig7d) ([2]; 6ug, 4h after dosing, n 11): 9.8

O=C(O)CCCc1ccc(N(CCCl)CCCl)cc1 [Chlorambucil]
1st / % Compound Remaining [3, 4]: 100%
2nd / % Compound Remaining [3, 4]: 100%
Mean / % Compound Remaining [3, 4]: 100%
1st / % Compound Remaining ([3]; incubation 30 minutes): 68.5%
2nd / % Compound Remaining ([3]; incubation 30 minutes): 81.3%
Mean / % Compound Remaining ([3]; incubation 30 minutes): 74.9%
1st / % Compound Remaining [3, 5]: 45.8%
2nd / % Compound Remaining [3, 5]: 52.3%
Mean / % Compound Remaining [3, 5]: 49.1%
1st / % Compound Remaining ([3]; incubation 90 minutes): 27.3%
2nd / % Compound Remaining ([3]; incubation 90 minutes): 31%
Mean / % Compound Remaining ([3]; incubation 90 minutes): 29.2%
1st / % Compound Remaining [3, 6]: 11%
2nd / % Compound Remaining [3, 6]: {17.7} %
Mean / % Compound Remaining [3, 6]: 11%
half-life ([3]; UoBern01 at 1.00E-06 M, read-out: 1st / Half-Life): 39 min
half-life ([3]; UoBern01 at 1.00E-06 M, read-out: 2nd / Half-Life): 52.6 min
half-life ([3]; UoBern01 at 1.00E-06 M, read-out: Mean / Half-Life): 46 min

CCCn1c(=O)c2[nH]c(C3CCCC3)nc2n(CCC)c1=O [DPCPX]
effect on reversal of mechanical allodynia by BnOCPA ([2]; DPCPX 1 mg kg^−1 IP, BnOCPA 6 µg kg^−1 IV): prevented the reversal of mechanical allodynia by BnOCPA
paw withdrawal threshold, Average (Fig7d) [2, 7]: 4.0
paw withdrawal threshold, individual animals (Fig7d) [2, 7]: 6 and 4 and 2
paw withdrawal threshold, Average (Fig7d) [2, 8]: 4.0
paw withdrawal threshold, individual animals (Fig7d) [2, 8]: 6 and 4 and 2
paw withdrawal threshold, Average (Fig7d) [2, 9]: 4.7
paw withdrawal threshold, individual animals (Fig7d) [2, 9]: 6 and 4 and 2

CCCOC(=O)c1c(-c2ccccc2)nc(CC)c(C(=O)SCC)c1CCC [MRS1523]
effect on analgesia caused by BnOCPA ([2]; MRS1523 2 mg kg^−1 IP, BnOCPA 6 µg kg^−1 IV): had no effect on the analgesia caused by BnOCPA
paw withdrawal threshold, Average (Fig7d) [2, 7]: 13.6
paw withdrawal threshold, individual animals (Fig7d) [2, 7]: 15 and 8
paw withdrawal threshold, Average (Fig7d) [2, 8]: 14.0
paw withdrawal threshold, individual animals (Fig7d) [2, 8]: 15 and 10
paw withdrawal threshold, Average (Fig7d) [2, 9]: 12.2
paw withdrawal threshold, individual animals (Fig7d) [2, 9]: 15 and 10 and 6

Nc1ncnc2c1ncn2[C@@H]1O[C@H](CO)[C@@H](O)[C@H]1O [ado]
heart rate ([1]; Fig5c, individual rat): 179 and 147 and 138 and 122
heart rate, Average ([1]; Fig5c, n 4): 147
mean arterial blood pressure ([1]; Fig5d, individual rat): 56 and 36 and 42 and 48
mean arterial blood pressure, Average ([1]; Fig5d, n 4): 46

CN1CC[C@]23c4c5ccc(O)c4O[C@H]2[C@@H](O)C=C[C@H]3[C@H]1C5 [morphine]
Seconds on rota, 1h avg (motor coordination; Morphine, 1h post inj, avg of 3 trials per animal): 12.0 s and 6.0 s and 5.0 s and 6.3 s and 10.7 s and 10.3 s
1h avg/ baseline (motor coordination; Morphine, 1h post inj, per animal): 0.218 and 0.137 and 0.1 and 0.2 and 0.164 and 0.0833
Seconds on rota, 1h (motor coordination; Morphine, 1h post inj, single trials, individual animals): 5 s and 14 s and 17 s and 9 s and 4 s and 2 s and 10 s and 8 s and 1 s and 12 s
average of avg/baseline, 1hr post inj (motor coordination; Morphine, 1hr, group average): 0.150
Seconds on rota, 2h avg (motor coordination; Morphine, 2h post inj, avg of 3 trials per animal): 34.0 s and 19.7 s and 12.3 s and 6.7 s and 21.7 s and 31.0 s
2h avg/ baseline (motor coordination; Morphine, 2h post inj, per animal): 0.6 and 0.45 and 0.259 and 0.2 and 0.333 and 0.25
Seconds on rota, 2h (motor coordination; Morphine, 2h post inj, single trials, individual animals): 30 Seconds and 27 Seconds and 45 Seconds and 7 Seconds and 18 Seconds and 34 Seconds and 2 Seconds and 17 Seconds and 8 Seconds and 6 Seconds (2×) and 24 Seconds and 22 Seconds and 19 Seconds and 26 Seconds
average of avg/baseline, 2hr post inj (motor coordination; Morphine, 2hr, group average): 0.352
Seconds on rota, 3h avg (motor coordination; Morphine, 3h post inj, avg of 3 trials per animal): 46.3 s and 37.7 s and 34.0 s and 18.7 s and 55.0 s
3h avg/ baseline (motor coordination; Morphine, 3h post inj, per animal): 0.842 and 0.9 and 0.7 and 0.566 and 0.444
Seconds on rota, 3h (motor coordination; Morphine, 3h post inj, single trials, individual animals): 39 s and 41 s and 59 s and 27 s and 29 s and 57 s and 21 s and 54 s and 11 s and 23 s and 22 s and 26 s and 65 s
average of avg/baseline, 3hr post inj (motor coordination; Morphine, 3hr, group average): 0.690
Seconds on rota, 5h avg (motor coordination; Morphine, 5h post inj, avg of 3 trials per animal): 48.7 s and 52.3 s and 48.0 s and 81.7 s and 84.3 s
5h avg/ baseline (motor coordination; Morphine, 5h post inj, per animal): 0.9 and 1.1 and 1.5 and 1.3 and 0.7
Seconds on rota, 5h (motor coordination; Morphine, 5h post inj, single trials, individual animals): 24 s and 57 s and 65 s and 31 s and 60 s and 55 s and 19 s and 73 s and 38 s and 51 s and 67 s and 81 s and 97 s and 88 s and 100 s
average of avg/baseline, 5hr post inj (motor coordination; Morphine, 5hr, group average): 1.081
rotarod performance (motor coordination; morphine 15 mg kg^−1 SC): caused sedation and motor impairment
